Legend:
[1] = target: T1, Full length DGKζ (in-house protein M1-V929) (Homo sapiens, UniProt Q13574); assay: Biochemical DGK IC50 assay (ADP-Glo, lipid micelle substrate), DGKζ; details: 1 hour preincubation, 1 hour reaction, room temperature
T1 construct: His (N); TEV site (N); made in house; host or cells: Sf9 insect cells (Bac-to-Bac baculovirus)
Summary of the method: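 Enzyme: full-length human DGKζ M1-V929, produced in baculovirus-infected Sf9 cells; substrate DAG/PS micelles. Buffer 50 mM HEPES, 10 mM MgCl2, 0.01 mM CaCl2, 0.1 mM Na3VO4.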

[2] = target: T2, Full length DGKα (D21-10BG, SignalChem) (Homo sapiens, UniProt P23743); assay: Biochemical DGK IC50 assay (ADP-Glo, lipid micelle substrate), DGKα; details: 1 hour preincubation, 1 hour reaction, room temperature
T2 construct: Full length DGKα (D21-10BG, SignalChem); purchased SignalChem D21-10BG
Summary of the method: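 ADP-Glo luminescence quantified ADP produced after a 1 h room-temperature reaction of full-length DGKα on DAG/PS micelles, in HEPES buffer containing MgCl2, CaCl2, vanadate, BSA and Tween-20. IC50 values derive from activity inhibition over a compound concentration series.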

T2 sequence (P23743 whole entry): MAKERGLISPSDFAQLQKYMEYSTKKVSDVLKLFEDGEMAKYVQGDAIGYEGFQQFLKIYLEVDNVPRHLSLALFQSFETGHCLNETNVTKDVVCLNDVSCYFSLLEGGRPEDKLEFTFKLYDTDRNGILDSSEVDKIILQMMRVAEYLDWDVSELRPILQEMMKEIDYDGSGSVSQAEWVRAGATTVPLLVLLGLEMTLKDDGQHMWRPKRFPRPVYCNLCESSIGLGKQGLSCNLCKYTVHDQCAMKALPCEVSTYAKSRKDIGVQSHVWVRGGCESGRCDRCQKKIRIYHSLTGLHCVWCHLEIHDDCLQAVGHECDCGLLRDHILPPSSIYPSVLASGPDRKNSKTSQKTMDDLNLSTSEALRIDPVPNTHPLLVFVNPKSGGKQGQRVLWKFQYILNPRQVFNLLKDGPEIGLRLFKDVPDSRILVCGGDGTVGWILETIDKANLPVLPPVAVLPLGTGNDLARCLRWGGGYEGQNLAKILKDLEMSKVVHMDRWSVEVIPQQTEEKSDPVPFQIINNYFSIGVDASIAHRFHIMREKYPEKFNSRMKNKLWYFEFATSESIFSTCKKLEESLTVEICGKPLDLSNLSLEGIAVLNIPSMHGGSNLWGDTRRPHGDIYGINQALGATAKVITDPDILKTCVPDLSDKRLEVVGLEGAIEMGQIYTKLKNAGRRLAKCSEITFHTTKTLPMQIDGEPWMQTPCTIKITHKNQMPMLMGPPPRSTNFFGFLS
T1 sequence (Q13574 1-929 isoform Q13574-4): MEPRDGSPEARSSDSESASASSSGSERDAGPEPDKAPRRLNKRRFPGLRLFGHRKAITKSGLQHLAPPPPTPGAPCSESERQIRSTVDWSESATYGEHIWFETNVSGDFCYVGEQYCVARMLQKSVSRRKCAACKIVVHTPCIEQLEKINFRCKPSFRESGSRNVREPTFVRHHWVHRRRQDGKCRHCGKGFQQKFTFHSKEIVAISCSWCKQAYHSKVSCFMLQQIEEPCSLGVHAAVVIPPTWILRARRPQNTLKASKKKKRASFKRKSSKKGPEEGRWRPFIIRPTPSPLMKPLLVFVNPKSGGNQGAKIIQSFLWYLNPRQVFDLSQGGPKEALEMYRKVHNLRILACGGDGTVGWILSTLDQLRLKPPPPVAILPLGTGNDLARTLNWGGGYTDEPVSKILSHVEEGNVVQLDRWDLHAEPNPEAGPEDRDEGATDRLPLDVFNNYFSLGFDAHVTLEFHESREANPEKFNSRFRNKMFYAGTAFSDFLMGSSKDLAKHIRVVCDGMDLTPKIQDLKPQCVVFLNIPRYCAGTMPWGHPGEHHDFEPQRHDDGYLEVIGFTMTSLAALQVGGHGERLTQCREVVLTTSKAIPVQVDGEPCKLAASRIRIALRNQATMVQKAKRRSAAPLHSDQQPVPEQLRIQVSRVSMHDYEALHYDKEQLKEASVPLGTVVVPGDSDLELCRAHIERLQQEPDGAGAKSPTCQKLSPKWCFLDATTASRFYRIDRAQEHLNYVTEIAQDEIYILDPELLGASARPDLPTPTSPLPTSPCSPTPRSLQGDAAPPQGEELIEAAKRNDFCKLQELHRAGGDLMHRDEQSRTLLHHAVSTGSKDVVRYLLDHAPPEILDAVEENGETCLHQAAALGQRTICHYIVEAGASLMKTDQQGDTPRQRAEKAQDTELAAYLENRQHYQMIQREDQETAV

SMILES | IC50 [1] [nM] | IC50 [2] [nM]
CCn1c(CC#N)nc2c(N3C[C@@H](C)N(C(C)c4ccc5c(c4)CN(C)C5=O)C[C@@H]3C)nc(=O)n(C)c21 (stereo partly drawn) [Compound A101, 2-(6-((2S,5R)-2,5-dimethyl-4-(1-(2-methyl-1-oxoisoindolin-5-yl)ethyl)piperazin-1-yl)-9-ethyl-3-methyl-2-oxo-3,9-dihydro-2H-purin-8-yl)acetonitrile] | 4230 | > 150000
CC(c1ccc(F)cc1C(F)(F)F)N1C[C@H](C)N(c2cc(=O)n(C)c3c2nc(CC#N)n3C)C[C@H]1C (stereo partly drawn) [Compound A2, 2-(7-((2S,5R)-4-(1-(4-fluoro-2-(trifluoromethyl)phenyl)ethyl)-2,5-dimethylpiperazin-1-yl)-3,4-dimethyl-5-oxo-4,5-dihydro-3H-imidazo[4,5-b]pyridin-2-yl)acetonitrile] | 92 | > 150000
Cc1ccc(C(C)N2C[C@H](C)N(c3cc(=O)n(C)c4c3nc(CC#N)n4C)C[C@H]2C)c(C(F)(F)F)c1 (single isomer, unassigned) [Compound A8b] | 97 | > 150000
CCn1c(CC#N)nc2c(N3C[C@@H](C)N(C(C)c4ccc5c(c4)OC(F)(F)O5)C[C@@H]3C)nc(=O)n(C)c21 (single isomer, unassigned) [Compound A99b] | 536 | 46500
CCn1c(CC#N)nc2c(N3C[C@@H](C)N(C(C)c4cc5c(cc4F)OCC(C)(C)O5)C[C@@H]3C)nc(=O)n(C)c21 (single isomer, unassigned) [Compound A157b] | 346 | 55700
CCn1c(CC#N)nc2c(N3C[C@@H](C)N(C(C)c4ccc5c(c4)OC(F)(F)O5)C[C@@H]3C)nc(=O)n(C)c21 (stereo partly drawn) [Compound A99, 2-(6-((2S,5R)-4-(1-(2,2-difluorobenzo[d][1,3]dioxol-5-yl)ethyl)-2,5-dimethylpiperazin-1-yl)-9-ethyl-3-methyl-2-oxo-3,9-dihydro-2H-purin-8-yl)acetonitrile] | 128 | 55600
CCn1c(CC#N)nc2c(N3C[C@@H](C)N(C(C)c4ccc5c(c4)OC4(CCC4)O5)C[C@@H]3C)nc(=O)n(C)c21 (single isomer, unassigned) [Compound A169b] | 455 | 78200
CCn1c(CC#N)nc2c(N3C[C@@H](C)N(C(C)c4ccc5c(c4)C(C)(C)N(C)C5=O)C[C@@H]3C)nc(=O)n(C)c21 (stereo partly drawn) [Compound A84, 2-(6-((2S,5R)-2,5-dimethyl-4-(1-(2,3,3-trimethyl-1-oxoisoindolin-5-yl)ethyl)piperazin-1-yl)-9-ethyl-3-methyl-2-oxo-3,9-dihydro-2H-purin-8-yl)acetonitrile] | 232 | > 150000
CC(c1ccc2c(c1)OC(C)(C)CO2)N1C[C@H](C)N(c2nc(=O)n(C)c3c2nc(CC#N)n3C)C[C@H]1C (single isomer, unassigned) [Compound A59a] | 238 | 40300
CC[C@@H]1CN(c2nc(=O)n(CC)c3c2nc(CC#N)n3C)[C@@H](C)CN1C(C)c1ccc2c(c1)OC(C)(C)CO2 (single isomer, unassigned) [Compound A66a] | 217 | 15800
CCn1c(CC#N)nc2c(N3C[C@@H](C)N(C(C)c4nc5c(cc4F)OCC(C)(C)O5)C[C@@H]3C)nc(=O)n(C)c21 (single isomer, unassigned) [Compound A161b] | 2630 | > 150000
CCn1c(CC#N)nc2c(N3C[C@@H](C)N(C(C)c4cc(C)c5c(c4)OC(C)(C)O5)C[C@@H]3C)nc(=O)n(C)c21 (stereo partly drawn) [Compound A177, 2-(6-((2S,5R)-2,5-dimethyl-4-(1-(2,2,7-trimethylbenzo[d][1,3]dioxol-5-yl)ethyl)piperazin-1-yl)-9-ethyl-3-methyl-2-oxo-3,9-dihydro-2H-purin-8-yl)acetonitrile] | 168 | 72600

Stronger by IC50 [1], values ahead:

IC50 [1] [nM] | IC50 [2] [nM] | SMILES
81 | > 150000 | CCn1c(CC#N)nc2c(N3C[C@@H](C)N(C(C)c4nc5c(cc4F)OCC(C)(C)O5)C[C@@H]3C)nc(=O)n(C)c21 (mixture of isomers) [Compound A161, 2-(9-ethyl-6-((2S,5R)-4-(1-(7-fluoro-3,3-dimethyl-2,3-dihydro-[1,4]dioxino[2,3-b]pyridin-6-yl)ethyl)-2,5-dimethylpiperazin-1-yl)-3-methyl-2-oxo-3,9-dihydro-2H-purin-8-yl)acetonitrile]
64 | > 10000 | COc1cc(F)ccc1C(C)N1C[C@H](C)N(c2cc(=O)n(C)c3c2nc(CC#N)n3C)C[C@H]1C (single isomer, unassigned) [Compound A4b]
45 | > 150000 | CCn1c(CC#N)nc2c(N3C[C@@H](C)N(C(C)c4ccc5c(n4)OC(C)(C)CO5)C[C@@H]3C)nc(=O)n(C)c21 (stereo partly drawn) [Compound A74, 2-(6-((2S,5R)-4-(1-(3,3-dimethyl-2,3-dihydro-[1,4]dioxino[2,3-b]pyridin-6-yl)ethyl)-2,5-dimethylpiperazin-1-yl)-9-ethyl-3-methyl-2-oxo-3,9-dihydro-2H-purin-8-yl)acetonitrile]
34 | 51200 | CCn1c(CC#N)nc2c(N3C[C@@H](C)N(C(C)c4cccc(OC(F)(F)F)c4)C[C@@H]3C)nc(=O)n(C)c21 (stereo partly drawn) [Compound A44, 2-(6-((2S,5R)-2,5-dimethyl-4-(1-(3-(trifluoromethoxy)phenyl)ethyl)piperazin-1-yl)-9-ethyl-3-methyl-2-oxo-3,9-dihydro-2H-purin-8-yl)acetonitrile]
33 | 60500 | CC(c1nc2c(cc1F)OCC(C)(C)O2)N1C[C@H](C)N(c2nc(=O)n(C)c3c2nc(CC#N)n3C)C[C@H]1C (stereo partly drawn) [Compound A162, 2-(6-((2S,5R)-4-(1-(7-fluoro-3,3-dimethyl-2,3-dihydro-[1,4]dioxino[2,3-b]pyridin-6-yl)ethyl)-2,5-dimethylpiperazin-1-yl)-3,9-dimethyl-2-oxo-3,9-dihydro-2H-purin-8-yl)acetonitrile]
23 | 50900 | CCn1c(CC#N)nc2c(N3C[C@@H](C)N(C(C)c4ccc5nc(C)sc5c4)C[C@@H]3C)nc(=O)n(C)c21 (single isomer, unassigned) [Compound A56b]
16 | 16400 | CC(c1ccc2c(c1)OC(F)(F)C(F)(F)O2)N1C[C@H](C)N(c2nc(=O)n(C)c3c2nc(CC#N)n3C)C[C@H]1C (mixture of isomers) [Compound A79, 2-(6-((2S,5R)-2,5-dimethyl-4-(1-(2,2,3,3-tetrafluoro-2,3-dihydrobenzo[b][1,4]dioxin-6-yl)ethyl)piperazin-1-yl)-3,9-dimethyl-2-oxo-3,9-dihydro-2H-purin-8-yl)acetonitrile]
14 | 44300 | CC(c1ccc(F)cc1C(F)F)N1C[C@H](C)N(c2nc(=O)n(C)c3c2nc(CC#N)n3C)C[C@H]1C (stereo partly drawn) [Compound A30, 2-(6-((2S,5R)-4-(1-(2-(difluoromethyl)-4-fluorophenyl)ethyl)-2,5-dimethylpiperazin-1-yl)-3,9-dimethyl-2-oxo-3,9-dihydro-2H-purin-8-yl)acetonitrile]
14 | 11900 | COC[C@H]1CN(C(C)c2ccc3c(c2)OCCO3)[C@H](C)CN1c1nc(=O)n(C)c2c1nc(CC#N)n2C (single isomer, unassigned) [Compound A11b]
13 | > 150000 | CCn1c(CC#N)nc2c(N3C[C@@H](C)N(C(C)c4cc(F)c5c(n4)OC(C)(C)CO5)C[C@@H]3C)nc(=O)n(C)c21 (single isomer, unassigned) [Compound A163a]
8 | 116000 | CCn1c(CC#N)nc2c(N3C[C@@H](C)N(C(C)c4ccc5c(c4Cl)OC(C)(C)O5)C[C@@H]3C)nc(=O)n(C)c21 (single isomer, unassigned) [Compound A172b]
6 | 16600 | CCn1c(CC#N)nc2c(N3C[C@@H](C)N(C(C)c4ccc5c(c4)OC(C)(C)CC5)C[C@@H]3C)nc(=O)n(C)c21 (single isomer, unassigned) [Compound A94a]
5 | 22200 | CCn1c(CC#N)nc2c(N3C[C@@H](C)N(C(C)c4ccc5c(c4F)OC(C)(C)O5)C[C@@H]3C)nc(=O)n(C)c21 (stereo partly drawn) [Compound A175, 2-(9-ethyl-6-((2S,5R)-4-(1-(4-fluoro-2,2-dimethylbenzo[d][1,3]dioxol-5-yl)ethyl)-2,5-dimethylpiperazin-1-yl)-3-methyl-2-oxo-3,9-dihydro-2H-purin-8-yl)acetonitrile]
3.3 | 72500 | CCn1c(CC#N)nc2c(N3C[C@@H](C)N(C(C)c4ccc5c(c4)OC(C)(C)CO5)C[C@@H]3C)nc(=O)n(C)c21 (single isomer, unassigned) [Compound A60a]
2.3 | 14200 | CC(c1ccc2c(c1)OC(C)(C)CO2)N1C[C@H](C)N(c2nc(=O)n(C)c3c2nc(CC#N)n3C)C[C@H]1C (single isomer, unassigned) [Compound A59b]
2 | 10300 | CC[C@@H]1CN(c2nc(=O)n(C)c3c2nc(CC#N)n3C)[C@@H](C)CN1C(C)c1ccc2c(c1)OC(C)(C)CO2 (single isomer, unassigned) [Compound A63a]
0.88 | 5280 | CC[C@H]1CN(C(C)c2ccc3c(c2)OC(C)(C)CO3)[C@H](CC)CN1c1nc(=O)n(C)c2c1nc(CC#N)n2C (single isomer, unassigned) [Compound A64a]
